The values below come from ChEMBL document CHEMBL1139889, “Identification and characterization of a library of microheterogeneous cyclohexadepsipeptides from the fungus Isaria” (J Nat Prod, 2007).

The term IC50 denotes the concentration that inhibits the measured activity by half. The low end stands for inhibition by little substance, the high end for a need for much substance.

Series [1] is described as follows: Toxicity against human erythrocytes assessed as lysis at 300 uM. The series is classed as cell-based. The settings on record: erythrocyte.
The next series concerns Plasmodium falciparum. Nature of the series: Growth inhibition of Plasmodium falciparum 3D7 in erythrocytes by [3H]hypoxanthine uptake. The series is classed as functional, organism-based.
The nature of series [2]: Toxicity against human erythrocytes assessed as lysis at 600 uM. The series is classed as cell-based. The note with it: erythrocyte.

Peptide text beside a SMILES is read from it.

Take `CC(C)CC1OC(=O)CCNC(=O)[C@H](Cc2ccccc2)N(C)C(=O)[C@H](C(C)C)N(C)C(=O)[C@H](Cc2ccccc2)NC(=O)[C@@H]2CCCN2C1=O` (stereo partly specified) [ISARIDINE A] (HELM PEPTIDE1{F.[meV].[meF].[bAla].[CC(C)CC(O[*:1])C(=O)[*:2]].P}$PEPTIDE1,PEPTIDE1,1:R1-6:R2$$$V2.0): the Activity result in series [1] and in series [2] was “Non-toxic” in each case. Further, in the series on Plasmodium falciparum, the IC50 is 230 µM.
In the case of `CCCCCCC1CC(=O)NCC(=O)N[C@@H](C(C)C)C(=O)N[C@H](CC(C)C)C(=O)N[C@@H](C)C(=O)N[C@@H](C(C)C)C(=O)O1` (stereo partly specified) [ISARIIN B], the Activity entry in series [1] and in series [2] was “Non-toxic” in each case. Also, in the series with Plasmodium falciparum, the IC50 was 118 µM.
